Reference: ChEMBL document CHEMBL1201862, “PubChem BioAssay data set” (2004)
Calls of active or inactive are those of the source.

Assays:
[1] = molecular target: T1, Heat shock factor protein 1 (Mus musculus, UniProt P38532); experiment: inhibition of MG132-induced HSE-luciferase signal, confirmation, cell-based, NIH3T3, luminescence, dose retest (AID 2382); format: functional;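 also: NIH3T3 fibroblasts with HSF1-driven luciferase reporter stressed by proteasome inhibitor MG132; luminescence from HSF1-driven luciferase expression after 8 hours of MG132 stress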
T1 sequence (P38532 whole entry): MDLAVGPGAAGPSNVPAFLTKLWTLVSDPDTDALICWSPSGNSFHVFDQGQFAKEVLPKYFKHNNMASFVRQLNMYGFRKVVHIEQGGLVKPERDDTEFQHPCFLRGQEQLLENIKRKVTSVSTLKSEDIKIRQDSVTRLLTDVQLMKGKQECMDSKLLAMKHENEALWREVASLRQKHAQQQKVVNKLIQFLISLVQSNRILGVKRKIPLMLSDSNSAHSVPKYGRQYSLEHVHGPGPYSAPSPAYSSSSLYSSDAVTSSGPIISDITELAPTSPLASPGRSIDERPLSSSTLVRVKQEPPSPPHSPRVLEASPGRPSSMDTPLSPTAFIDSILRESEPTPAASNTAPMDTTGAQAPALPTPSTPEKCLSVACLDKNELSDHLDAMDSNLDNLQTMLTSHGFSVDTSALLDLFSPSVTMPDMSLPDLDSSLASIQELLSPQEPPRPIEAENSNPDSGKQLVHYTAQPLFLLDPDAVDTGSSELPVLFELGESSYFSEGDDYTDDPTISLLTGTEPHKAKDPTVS

[2] = C. albicans growth with fluconazole, confirmation, fluorescence, retest (AID 2467); format: functional, cell-based
[3] = NIH-3T3 fibroblast cytotoxicity, dose response, cytotoxicity control, cell-based, fluorescence, Alamar Blue, secondary assay (AID 2327); format: functional;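 also: NIH-3T3 mouse fibroblasts cultured with fluconazole at 8 µg/mL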
[4] = molecular target: T2, Mannose-6-phosphate isomerase (Homo sapiens, UniProt P34949); experiment: human PMI inhibitors, high substrate, primary screen, biochemical, fluorescence intensity, high mannose 6-phosphate (AID 1220)
T2 sequence (P34949 whole entry): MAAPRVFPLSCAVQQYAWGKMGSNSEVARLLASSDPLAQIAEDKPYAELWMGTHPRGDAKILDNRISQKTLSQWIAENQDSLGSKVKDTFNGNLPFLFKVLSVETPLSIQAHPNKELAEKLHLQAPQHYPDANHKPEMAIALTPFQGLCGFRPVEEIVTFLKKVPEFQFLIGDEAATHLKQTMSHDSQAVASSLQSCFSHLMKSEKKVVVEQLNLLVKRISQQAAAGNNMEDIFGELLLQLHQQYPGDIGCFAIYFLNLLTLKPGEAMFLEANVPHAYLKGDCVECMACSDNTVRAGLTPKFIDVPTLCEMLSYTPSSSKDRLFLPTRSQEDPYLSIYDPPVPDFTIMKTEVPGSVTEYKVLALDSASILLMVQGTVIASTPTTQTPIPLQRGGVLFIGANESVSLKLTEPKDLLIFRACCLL

Paired box protein Pax-8 = Paired box protein Pax-8 (Homo sapiens, UniProt Q06710); experiment: inhibitors of PAX8-driven TPO luciferase reporter, dose response, RMG-I cells, cherry-pick (AID 687027); format: functional, cell-based;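 also: luciferase reporter driven by Pax8 target thyroperoxidase promoter measured by SteadyGlo luminescence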
Paired box protein Pax-8, sequence (Q06710 whole entry): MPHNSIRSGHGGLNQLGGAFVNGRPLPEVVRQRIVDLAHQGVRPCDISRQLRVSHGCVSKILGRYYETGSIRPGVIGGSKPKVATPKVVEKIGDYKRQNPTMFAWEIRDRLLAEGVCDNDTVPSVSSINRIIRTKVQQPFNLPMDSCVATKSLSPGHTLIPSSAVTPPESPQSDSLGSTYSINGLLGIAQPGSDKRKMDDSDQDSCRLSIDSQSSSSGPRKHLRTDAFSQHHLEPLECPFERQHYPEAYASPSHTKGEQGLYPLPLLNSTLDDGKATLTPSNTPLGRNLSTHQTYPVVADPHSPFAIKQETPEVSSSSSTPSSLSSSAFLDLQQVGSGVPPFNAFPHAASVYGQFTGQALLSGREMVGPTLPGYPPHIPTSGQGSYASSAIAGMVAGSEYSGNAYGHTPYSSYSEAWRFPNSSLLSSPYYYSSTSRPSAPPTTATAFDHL

[5] = Luminescence-based cell-based high throughput dose response assay to identify activators of the DAF-12 from the parasite S. stercoralis (ssDAF-12).; format: functional
[6] = molecular target: T3, Oxysterols receptor LXR-beta (Homo sapiens, UniProt P55055); experiment: LXR agonists, Gal4 luciferase reporter, dose response, counter-screen for ssDAF-12 agonist project, cell-based, luminescence, HEK293, S. stercoralis campaign (AID 720737); format: functional; settings: read-out: IC50 (the source's name)
T3 sequence (P55055 whole entry): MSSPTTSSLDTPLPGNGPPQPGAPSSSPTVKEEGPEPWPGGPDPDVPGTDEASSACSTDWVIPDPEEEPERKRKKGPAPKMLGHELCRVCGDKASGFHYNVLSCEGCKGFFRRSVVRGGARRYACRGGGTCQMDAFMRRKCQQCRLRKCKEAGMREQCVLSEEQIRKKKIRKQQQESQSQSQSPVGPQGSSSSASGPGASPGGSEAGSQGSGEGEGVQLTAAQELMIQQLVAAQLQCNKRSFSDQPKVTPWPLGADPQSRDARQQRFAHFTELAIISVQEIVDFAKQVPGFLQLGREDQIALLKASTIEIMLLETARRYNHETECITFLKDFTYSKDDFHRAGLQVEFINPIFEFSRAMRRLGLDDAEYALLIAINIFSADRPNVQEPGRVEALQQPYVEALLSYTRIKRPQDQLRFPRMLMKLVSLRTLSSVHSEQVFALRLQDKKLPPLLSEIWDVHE

[7] = molecular target: T3, Oxysterols receptor LXR-beta; format: functional, cell-based
[8] = A2780 ovarian cancer cell cytotoxicity, dose response, cytotoxicity control, plate reader, dry powder samples (AID 743046); format: functional, cell-based
[9] = cytotoxicity in OVCAR8 ovarian cancer cells, dose response, PAX8 project, cell-based, plate reader, dry powder samples (AID 743197); format: functional; settings: OVCAR-8
[10] = molecular target: T4, Long-chain-fatty-acid--AMP ligase FadD28 (Mycobacterium tuberculosis, UniProt P9WQ59); experiment: Fluorescence polarization aasay to screen for inhibitors that compete for the binding of FadD28 to a bisubstrate Measured in Biochemical System Using Plate Reader - 2147-01_Inhibitor_Dose_CherryPick_Activity.; format: functional, Mycobacterium tuberculosis H37Rv
T4 sequence (P9WQ59 whole entry): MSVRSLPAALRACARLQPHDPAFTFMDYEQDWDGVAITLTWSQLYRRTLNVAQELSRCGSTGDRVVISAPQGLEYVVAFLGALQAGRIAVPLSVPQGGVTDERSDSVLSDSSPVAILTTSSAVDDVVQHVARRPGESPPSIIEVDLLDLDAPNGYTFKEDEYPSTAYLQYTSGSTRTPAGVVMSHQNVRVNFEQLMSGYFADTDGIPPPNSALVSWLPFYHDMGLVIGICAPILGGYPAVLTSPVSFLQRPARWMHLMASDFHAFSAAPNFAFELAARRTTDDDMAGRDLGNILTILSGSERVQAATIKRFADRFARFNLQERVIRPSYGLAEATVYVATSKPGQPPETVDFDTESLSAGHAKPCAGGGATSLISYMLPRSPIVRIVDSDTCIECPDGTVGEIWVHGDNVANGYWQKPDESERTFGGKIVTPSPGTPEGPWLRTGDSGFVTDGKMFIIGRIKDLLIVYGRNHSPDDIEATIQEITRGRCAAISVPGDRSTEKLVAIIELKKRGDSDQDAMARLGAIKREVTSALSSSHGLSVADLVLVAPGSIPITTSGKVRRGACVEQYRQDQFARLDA

[11] = HeLa cell cytotoxicity, dose response, cytotoxicity control for MgcRacGAP inhibitor project (AID 624300); format: functional
[12] = growth suppression of PTEN-null colon cells, dose response, cell-based, HCT116 PTEN knockout (AID 1047); format: functional;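 also: HCT116 colon tumor cells with PTEN knocked out; cells exposed to compound for 60 hours before readout; potency for loss of cell viability measured by luminescence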
[13] = molecular target: T5, Rac GTPase-activating protein 1 (Homo sapiens, UniProt Q9H0H5); experiment: MgcRacGAP GTPase-activating activity inhibitors, confirmation, biochemical, ADP Hunter fluorescence, primary and confirmatory (AID 624330); format: functional
T5 sequence (Q9H0H5 whole entry): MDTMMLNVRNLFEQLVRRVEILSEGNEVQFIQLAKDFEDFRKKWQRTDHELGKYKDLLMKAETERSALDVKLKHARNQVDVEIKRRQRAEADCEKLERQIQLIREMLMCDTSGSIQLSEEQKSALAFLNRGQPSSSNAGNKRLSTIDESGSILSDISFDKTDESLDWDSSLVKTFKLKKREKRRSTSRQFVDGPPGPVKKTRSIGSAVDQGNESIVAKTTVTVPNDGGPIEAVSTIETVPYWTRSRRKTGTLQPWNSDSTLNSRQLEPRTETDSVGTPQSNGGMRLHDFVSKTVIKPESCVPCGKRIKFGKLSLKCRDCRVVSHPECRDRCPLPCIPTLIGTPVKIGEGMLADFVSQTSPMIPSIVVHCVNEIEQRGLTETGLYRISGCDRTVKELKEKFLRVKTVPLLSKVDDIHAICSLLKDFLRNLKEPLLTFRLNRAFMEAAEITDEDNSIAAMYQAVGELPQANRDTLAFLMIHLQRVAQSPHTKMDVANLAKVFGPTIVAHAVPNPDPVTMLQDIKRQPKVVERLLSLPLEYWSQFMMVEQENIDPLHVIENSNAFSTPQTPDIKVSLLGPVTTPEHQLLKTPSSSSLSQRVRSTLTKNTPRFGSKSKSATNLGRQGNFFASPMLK

[14] = growth suppression of beta-catenin-knockout colon cells, dose response, cell-based, HCT116, human colon tumor (AID 1045); format: functional;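 also: HCT116 colon tumor cells with beta catenin knocked out; cells exposed to compound for 60 hours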
Cytochrome P450 3A4 = Cytochrome P450 3A4 (Homo sapiens, UniProt P08684);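 also: CYP3A4 tested as one member of a cytochrome P450 panel screen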
Cytochrome P450 3A4, sequence (P08684 whole entry): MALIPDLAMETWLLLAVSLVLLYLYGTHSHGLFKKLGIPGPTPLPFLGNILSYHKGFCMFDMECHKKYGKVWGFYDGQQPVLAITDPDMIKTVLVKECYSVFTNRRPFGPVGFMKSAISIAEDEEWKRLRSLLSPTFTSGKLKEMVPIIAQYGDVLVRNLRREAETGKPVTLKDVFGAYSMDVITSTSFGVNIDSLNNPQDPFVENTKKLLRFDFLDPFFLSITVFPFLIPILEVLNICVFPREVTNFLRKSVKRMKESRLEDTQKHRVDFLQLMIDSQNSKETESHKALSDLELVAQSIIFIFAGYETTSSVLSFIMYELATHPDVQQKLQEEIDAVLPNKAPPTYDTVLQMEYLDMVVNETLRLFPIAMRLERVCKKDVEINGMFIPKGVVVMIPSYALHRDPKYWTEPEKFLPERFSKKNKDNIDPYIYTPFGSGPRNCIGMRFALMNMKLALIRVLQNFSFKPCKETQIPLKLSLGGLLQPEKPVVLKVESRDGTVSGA

Cytochrome P450 2C9 = Cytochrome P450 2C9 (Homo sapiens, UniProt P11712)
Cytochrome P450 2C9, sequence (P11712 whole entry): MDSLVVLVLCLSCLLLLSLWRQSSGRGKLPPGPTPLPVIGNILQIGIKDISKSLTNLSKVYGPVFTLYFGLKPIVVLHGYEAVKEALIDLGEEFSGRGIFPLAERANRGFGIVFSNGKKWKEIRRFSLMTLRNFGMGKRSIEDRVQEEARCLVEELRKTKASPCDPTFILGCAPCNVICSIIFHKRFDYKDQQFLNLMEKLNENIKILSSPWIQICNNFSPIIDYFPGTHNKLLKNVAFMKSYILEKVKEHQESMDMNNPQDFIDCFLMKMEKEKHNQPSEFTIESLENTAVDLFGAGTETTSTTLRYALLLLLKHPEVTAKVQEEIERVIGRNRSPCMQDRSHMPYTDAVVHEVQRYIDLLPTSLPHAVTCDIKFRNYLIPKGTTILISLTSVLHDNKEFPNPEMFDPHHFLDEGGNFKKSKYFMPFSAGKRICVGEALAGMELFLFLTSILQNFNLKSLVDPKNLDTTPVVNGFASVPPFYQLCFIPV

[15] = LGR2 antagonists, dose response, cell-based, HEK293, CRE-luciferase reporter, cherry pick, set 2 (AID 743343); format: functional;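 also: transfected cells were stimulated with diluted bursicon conditioned medium after compound addition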
[16] = HEK293 cell cytotoxicity, dose response, cytotoxicity control, plate reader, cherry-picked samples (AID 743446); format: functional, cell-based
[17] = MC4R antagonists, dose response, counter-screen for LGR2 antagonist project, cell-based, plate reader, cherry pick (AID 743444); format: functional;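 also: transfected HEK 293 cells stimulated with alpha-MSH peptide; potency of inhibitors of the alpha-MSH evoked signal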
[18] = HepG2 cell cytotoxicity, dose response, cytotoxicity control, plate reader, cherry-pick, antagonist series (AID 743416); format: functional, cell-based
[19] = A549 cell cytotoxicity, dose response, cytotoxicity control, plate reader, cherry-pick, antagonist series (AID 743412); format: functional, cell-based

In the case of `Cc1cccc(NCc2ccc(O)c3ncccc23)c1C`, the EC50 [1] is reported as > 195 µM (not active), the EC50 [2] is reported as > 38 µM (not active) and the EC50 [3] is reported as > 150 µM (inactive). The IC50 [4] was > 50 µM (not active) and the AC50 (Paired box protein Pax-8) was 15 µM (active).
With `O=C(CNC(=O)c1cccs1)OCC(=O)c1ccc(Cl)cc1` the IC50 [5] was > 67.5 µM (inactive) and the EC50 [6] was > 67.5 µM (inactive).
With `Cn1cccc1C(=O)OCc1csc(-c2ccccc2)n1` the EC50 [7] was > 67.5 µM (inactive), the EC50 (cells) was > 67.5 µM (inactive) and the IC50 [5] was > 67.5 µM (inactive). For the same molecule, the EC50 [6] was > 67.5 µM (inactive).
For `O=C(C[C@@H]1CC[C@H]2[C@@H](COC[C@H](O)CN2C(=O)Nc2ccc(Cl)c(Cl)c2)O1)NCc1ccc(Cl)cc1`, the AC50 [8] was 11.9 µM (active), the AC50 [9] was > 70 µM (inactive) and the AC50 (Paired box protein Pax-8) was 13.5 µM (active).
For `Cn1c(N/N=C/c2c[nH]c3ccccc23)nc2ccccc21`, the AC50 [10] was 52.1 µM (active), the CC50 [11] was 100 µM (active) and the EC50 [12] was 2.96 µM (active). For the same molecule, the EC50 [2] was > 38 µM (not active), the IC50 [13] was 44.4 µM (active) and the EC50 [3] was > 150 µM (inactive). The EC50 [14] was 2.81 µM (active), the AC50 (Cytochrome P450 3A4) was 20 µM (inconclusive) and the AC50 (Cytochrome P450 2C9) was 28.2 µM (inconclusive).
For `C[C@H](CO)N1C[C@H](C)[C@H](CN(C)Cc2ccc(C(F)(F)F)cc2)Oc2ccc(NC(=O)Nc3ccccc3)cc2C1=O`, the AC50 [15] was 27.4 µM (active), the AC50 [16] was > 47 µM (inactive) and the AC50 [17] was 20.2 µM (active). The AC50 [18] was > 47 µM (inactive) and the AC50 [19] was 7.64 µM (active).
